Data taken from US20080070875A1, “Acne treatment compositions and methods of use” (priority 2006, published 2008).
Read-outs that look alike come from different tables or passages of the source.

System: P. acnes (MicroBiologics, ATCC #11827)
Assay: Minimal inhibitory concentration (MIC) against P. acnes, serial dilution in thioglycollate broth
Format: cell-based, Propionbacterium acnes
Settings: for MIC: Cutibacterium acnes
Procedure: The objective of this example was to establish the minimal inhibitory concentration (MIC) of quercetin (Q), rosmarinic acid (RA), triclosan (T) and salicylic acid (SA) towards the bacterium P. acnes. Combinations of quercetin with rosmarinic acid 1:1 (Q+RA) and quercetin with salicylic acid (1:1) (Q+SA) were also tested.
The following methods were used in this example. P. acnes (MicroBiologics, ATCC #11827, batch #419697) was inoculated at 3 different dilutions and grown on blood agar plates for 3 days in anaerobic condition at 37 C. About 10 colonies were than suspended in thioglycollate broth in order to achieve the density equivalent to 0.5 McFarland standard. Test materials were dissolved in the thioglycollate broth at following concentrations:
The antimicrobial effect of the test samples was assayed by making serial dilutions for each material or the 1:1 combination thereof, followed by anaerobic incubation with bacterial agent in thioglycollate brothin a 96 well plate, at the initial density of 5×10^5 CFU/ml (0.001 McFarland standard). MIC was determined visually after 84 hours and confirmed by spectrophotometry at 405 nm with the BioRad 3550-UV microplate reader, using media with respective test materials without bacteria for background subtraction.

[1] = ATCC11827, anaerobic incubation in thioglycollate broth, 84 hours, visual, confirmed at 405 nm, read-out: MIC
[2] = anaerobic incubation in thioglycollate broth, 84 hours

| MIC [1] [µg/mL] | MIC (%) [2] [%] | SMILES | activity towards inhibiting P. acnes in the presence of salicylic acid (in the presence of salicylic acid (1:1), result in words) | activity towards inhibiting P. acnes (result in words) | MIC (ATCC11827, 84 h) [µg/mL] |
| --- | --- | --- | --- | --- | --- |
| 30 | 0.003 | O=c1c(O)c(-c2ccc(O)c(O)c2)oc2cc(O)cc(O)c12 [Q, 2-(3,4-dihydroxyphenyl)-3,5,7-trihydroxy-4H-1-benzopyran-4-one] | maintained activity | significant activity |  |
| 30 | 0.003 | O=C(/C=C/c1ccc(O)c(O)c1)O[C@H](Cc1ccc(O)c(O)c1)C(=O)O [RA] |  | significant activity |  |
| > 2000 | 2 | O=C(O)c1ccccc1O [SA, 2-Hydroxybenzoic acid, reference compound] |  |  |  |

| SMILES | MIC [1] [µg/mL] | MIC (%) [2] [%] | activity towards inhibiting P. acnes in the presence of salicylic acid (in the presence of salicylic acid (1:1), result in words) | activity towards inhibiting P. acnes (result in words) | MIC (ATCC11827, 84 h) [µg/mL] |
| --- | --- | --- | --- | --- | --- |
| Oc1cc(Cl)ccc1Oc1ccc(Cl)cc1Cl [T, triclosan, reference compound] |  | 0.4 |  |  | 400 |
